Measured values as given in US20250073255A1, “USE OF FA-TYPE LIPID COMPOUNDS IN PREPARATION OF NUCLEIC ACID DELIVERY REAGENT AND RELATED PRODUCT” (BEIJING BAISHIKANG PHARMACEUTICAL TECHNOLOGY (BSJPHARMA) …, priority 2021, published 2025).

System: C57BL/6 male mice
Experiment: In vivo delivery study of lipid nucleic acid mixture (oral gavage, RT-qPCR of PGY-sRNA-26 in tissues)
Design: species or system mouse
Settings: for oral delivery of single-stranded sRNA nucleic acids into mouse heart tissue: vs free uptake group; for oral delivery of single-stranded sRNA nucleic acids into mouse intestinal tissue: intestine; for overall delivery efficacy: delivering nucleic acids into each tissue and blood tested: 100 μg lipid:10 nmol PGY-sRNA-26, all tissues and blood tested
Method: 10 nmol of small RNA (as shown in Table 2) was dissolved in 400 μl of DEPC-treated water in a glass tube, 10 μl of the corresponding lipid stock solution was added such that the lipid mass in the system was 100 μg. The mixture was mixed thoroughly, heated in a 90° C. water bath for 15 minutes, and then cooled naturally to obtain the lipid nucleic acid mixture of lipid and small RNA.
C57BL/6 male mice, approximately 6 weeks old, weighing […], were obtained from Beijing Vital River Laboratory Animal Technology Co., Ltd. The mice were housed in the SPF-grade animal facility at the Animal Center of the Institute of Basic Medical Sciences, Chinese Academy of Medical Sciences. The mice were fasted for 12 hours before gavage administration.
The lipid nucleic acid mixture was prepared following the method described in Example 2. The resultant lipid nucleic acid mixture was orally administered to each mouse at a dose of 100 μg lipid:10 nmol single-stranded 3-methylated small RNA PGY-sRNA-26.
• 1) Blank group (n=4): mice were administered with 500 μl saline by gavage, this group served as a blank control; • 2) Free uptake group (n=4): mice were directly administered with small RNA PGY-sRNA-26 solution (10 nmol/mouse, 500 l) by gavage, this group served as a negative control; • 3) Lipid-treated group (n=4): mice were administered with 500 μl lipid nucleic acid mixture prepared in step 2 by gavage.
After 12 hours of gavage administration, 500 μl blood from the eyeball of each mouse was sampled, added to 1.5 ml Trizol Reagent LS (purchased from Invitrogen), thoroughly mixed for lysis. 3 ml of Trizol Reagent LSwas added to tissue samples and homogenized for complete lysis, wherein the sampled tissues include heart, liver, spleen, lung, kidney, stomach, intestine, brain, blood, femur, pancreas. RNAwas extracted from 1 ml of the blood or the tissue lysate following the steps below: • Centrifuge at 4° C., 12,000 rpm for 5 min, discard the precipitate, transfer Trizol to a new centrifuge tube; • Add chloroform at 200 μL chloroform/mL Trizol, shake well, stand at room temperature for 5 min; • Centrifuge at 4° C., 12,000 rpm for 15 min; • Take the upper aqueous phase to another centrifuge tube, add isopropanol at 0.4 mL isopropanol/mL Trizol, mix well, and stand at low temperature for 10-20 min; • Centrifuge at 4° C., 12,000 rpm for 15 min, discard the supernatant, RNA precipitated at the bottom of the tube; • Add 1 mL of 75% ethanol, gently shake the centrifuge tube, suspend the precipitate; • Centrifuge at 4° C., 12,000 rpm for 15 min, discard the supernatant, add 1 mL of 75% ethanol, gently shake the centrifuge tube, suspend the precipitate; • Centrifuge at 4° C., 12,000 rpm for 15 min, discard the supernatant, air-dry at room temperature, dissolve RNA samples in 50 μL RNase-free H2O, measure OD value to quantify RNA concentration. 3.3 Reverse Transcription of sRNA to cDNA:
sRNA was reverse transcribed to cDNA using the High-Capacity cDNA Reverse Transcription Kit (Applied Biosystems, cat. no. 4368813) by stem-loop method (see, e.g., “Real-time quantification of microRNAs by stem-loop RT-PCR, Nucleic Acids Res. 2005 Nov. 27; 33(20):e179”, incorporated herein by reference). The reverse transcription system is as follows: Template RNA (200 ng/μL) 10 μL, 10×RT Buffer 2.0 μL, 25×dNTP Mix (100 mM) 0.8 μL, U6 RT stem-loop primer (10 μM) 2.0 μL, PGY-sRNA-26 RT stem-loop primer (10 μM) 2.0 μL, MultiScribe™ Reverse Transcriptase (50 U/μL) 1.0 μL, RNAse Inhibitor (40 U/μL) 1.0 μL, nuclease-free H2O 1.2 μL. After transient centrifugation, the reverse transcription system was placed in a PCR machine with the following reaction conditions: (1) 25° C., 10 min; (2) 37° C., 120 min; (3) 85° C., 5 min; (4) 4° C., stop reaction. After the reaction, add 20 μL RNAse-free ddH2O, adjust the final volume to 40 μL. […]

[1] = 100 μg lipid:10 nmol PGY-sRNA-26, sampled after 12 hours

SMILES | oral delivery of single-stranded sRNA nucleic acids into mouse blood [1] | oral delivery of single-stranded sRNA nucleic acids into mouse brain tissue [1] | oral delivery of single-stranded sRNA nucleic acids into mouse femur [1] | oral delivery of single-stranded sRNA nucleic acids into mouse heart tissue [1] | oral delivery of single-stranded sRNA nucleic acids into mouse intestinal tissue [1] | oral delivery of single-stranded sRNA nucleic acids into mouse kidney tissue [1] | oral delivery of single-stranded sRNA nucleic acids into mouse liver tissue [1] | oral delivery of single-stranded sRNA nucleic acids into mouse lung tissue [1] | oral delivery of single-stranded sRNA nucleic acids into mouse pancreatic tissue (100 μg lipid:10 nmol PGY-sRNA-26, sampled after 12 hours, pancreas) | oral delivery of single-stranded sRNA nucleic acids into mouse spleen tissue [1] | oral delivery of single-stranded sRNA nucleic acids into mouse stomach tissue [1] | overall delivery efficacy: delivering nucleic acids into each tissue and blood tested
C=C(C)CCOC(=O)CCCCCCCCCCCCCCCCCCC [Lipid 814, 3-methylbut-3-enyl icosanoate] | can effectively orally deliver | can effectively orally deliver | can effectively orally deliver | can effectively orally deliver | can effectively orally deliver | can effectively orally deliver | can effectively orally deliver | can effectively orally deliver | can effectively orally deliver | can effectively orally deliver | can effectively orally deliver | –
CCCCCCCCCC(N)=O [Lipid 573, Decanamide] | can effectively orally deliver | can effectively orally deliver | can effectively orally deliver | can effectively orally deliver | can effectively orally deliver | – | can effectively orally deliver | – | – | can effectively orally deliver | can effectively orally deliver | –
CCCCCCCCCC=O [Lipid 615] | can effectively orally deliver | can effectively orally deliver | can effectively orally deliver | – | can effectively orally deliver | – | can effectively orally deliver | can effectively orally deliver | – | can effectively orally deliver | can effectively orally deliver | –
CCCCCCCCCCCCCCO [Lipid 635, tetradecan-1-ol] | can effectively orally deliver | can effectively orally deliver | can effectively orally deliver | can effectively orally deliver | can effectively orally deliver | can effectively orally deliver | can effectively orally deliver | can effectively orally deliver | – | can effectively orally deliver | can effectively orally deliver | best delivery efficacy
CCCCCCCCCCCCCCCCCCO [Lipid 636, octadecan-1-ol] | can effectively orally deliver | can effectively orally deliver | can effectively orally deliver | can effectively orally deliver | can effectively orally deliver | can effectively orally deliver | can effectively orally deliver | can effectively orally deliver | – | can effectively orally deliver | can effectively orally deliver | best delivery efficacy
CCCCC/C=C\C/C=C\C/C=C\C/C=C\CCCC(=O)O [Lipid 620, (5Z,8Z,11Z,14Z)-icosa-5,8,11,14-tetraenoic acid] | – | can effectively orally deliver | can effectively orally deliver | can effectively orally deliver | can effectively orally deliver | can effectively orally deliver | can effectively orally deliver | can effectively orally deliver | – | can effectively orally deliver | can effectively orally deliver | –
